Each structure is given as a SMILES string. pIC50: −log10 of the molar value.

Chain of human SGLT2 (P31639 whole entry): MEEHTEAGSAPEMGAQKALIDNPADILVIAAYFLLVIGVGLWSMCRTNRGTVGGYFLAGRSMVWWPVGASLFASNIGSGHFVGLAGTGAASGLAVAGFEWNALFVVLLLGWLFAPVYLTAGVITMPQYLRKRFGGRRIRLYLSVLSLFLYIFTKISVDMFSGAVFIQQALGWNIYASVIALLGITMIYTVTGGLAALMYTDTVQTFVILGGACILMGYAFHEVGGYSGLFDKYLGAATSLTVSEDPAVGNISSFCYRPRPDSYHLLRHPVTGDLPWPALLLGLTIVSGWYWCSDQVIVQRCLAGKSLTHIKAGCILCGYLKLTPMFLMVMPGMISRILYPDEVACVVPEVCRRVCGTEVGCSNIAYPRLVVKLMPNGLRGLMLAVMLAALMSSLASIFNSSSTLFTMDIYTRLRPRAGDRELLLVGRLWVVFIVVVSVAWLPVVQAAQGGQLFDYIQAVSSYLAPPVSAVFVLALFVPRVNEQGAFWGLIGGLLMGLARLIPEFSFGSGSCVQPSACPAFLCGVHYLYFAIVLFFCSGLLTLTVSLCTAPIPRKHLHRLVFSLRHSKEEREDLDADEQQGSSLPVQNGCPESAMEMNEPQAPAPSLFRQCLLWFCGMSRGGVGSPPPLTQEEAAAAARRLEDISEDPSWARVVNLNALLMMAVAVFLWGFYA

For the experiment, the target named is human SGLT2 (Homo sapiens (Human), UniProt P31639). Kind of experiment: hSGLT2 inhibitory activity, sodium-dependent 14C-AMG glucose transport assay in CHO cells expressing hSGLT2. To be noted: 14C-AMG uptake, CHO cells expressing hSGLT2, 37° C. for 2 h. It is filed as cell-based. The text has this:
Human SGLT2 (hSGLT2) gene was amplified by PCR from cDNA-Human Adult Normal Tissue Kidney (Invitrogen, Carlsbad, Calif.). The hSGLT2 sequence was cloned into pcDNA3.1(+) for mammalian expression and were stably transfected into Chinese hamster ovary (CHO) cells. SGLT2-expressing clones were selected based on resistance to G418 antibiotic (Geneticin®, Invitrogen, Carlsbad, Calif.) and activity in the ^14C-α-methyl-D-glucopyranoside (^14C-AMG) uptake assay.
For sodium-dependent glucose transport assay, cells expressing hSGLT2 were seeded into a 96-well culture plate at a density of 5×10^4 cells/well in RPMI medium 1640 containing 10% fetal bovine serum. The cells were used 1 day after plating. They were incubated in pretreatment buffer (10 mM HEPES, 5 mM Tris, 140 mM choline chloride, 2 mM KCl, 1 mM CaCl2, and 1 mM MgCl2, pH 7.4) at 37° C. for 10 min. They were then incubated in uptake buffer (10 mM HEPES, 5 mM Tris, 140 mM NaCl, 2 mM KCl, 1 mM CaCl2, 1 mM MgCl2, and 1 mM ^14C-nonlabeled AMG pH 7.4) containing ^14C-labeled (8 uM) and inhibitor or dimethyl sulfoxide (DMSO) vehicle at 37° C. for 2 h. Cells were washed twice with washing buffer (pretreatment buffer containing 10 mM AMG at room temperature) and then the radioactivity was measured using a liquid scintillation counter.
Compound `OC[C@H]1O[C@@H](c2ccc(Cl)c(Cc3nnc(-c4ccco4)s3)c2)[C@H](O)[C@@H](O)[C@@H]1O` [Example 1, (2S,3R,4R,5S,6R)-2-(4-Chloro-3-((5-(furan-2-yl)-1,3,4-thiadiazol-2-yl)methyl)phenyl)-6-(hydroxymethyl)-tetrahydro-2H-pyran-3,4,5-triol] showed a pIC50 of 8.15.
As for `Cc1ccc(-c2nnc(Cc3cc([C@@H]4O[C@H](CO)[C@@H](O)[C@H](O)[C@H]4O)ccc3Cl)s2)o1` [Example 2, (2S,3R,4R,5S,6R)-2-(4-Chloro-3-((5-(5-methylfuran-2-yl)-1,3,4-thiadiazol-2-yl)methyl)phenyl)-6-(hydroxymethyl)-tetrahydro-2H-pyran-3,4,5-triol], the figure is 7.23.
As for `Cc1ccoc1-c1nnc(Cc2cc([C@@H]3O[C@H](CO)[C@@H](O)[C@H](O)[C@H]3O)ccc2Cl)s1` [Example 3, (2S,3R,4R,5S,6R)-2-(4-Chloro-3-((5-(3-methylfuran-2-yl)-1,3,4-thiadiazol-2-yl)methyl)phenyl)-6-(hydroxymethyl)-tetrahydro-2H-pyran-3,4,5-triol], the figure is 6.97.
With `OC[C@H]1O[C@@H](c2ccc(Cl)c(Cc3nnc(-c4ccoc4)s3)c2)[C@H](O)[C@@H](O)[C@@H]1O` [Example 4, (2S,3R,4R,5S,6R)-2-(4-Chloro-3-((5-(furan-3-yl)-1,3,4-thiadiazol-2-yl)methyl)phenyl)-6-(hydroxymethyl)tetrahydro-2H-pyran-3,4,5-triol] the figure was 7.75.
For `OC[C@H]1O[C@@H](c2ccc(Cl)c(Cc3nnc(-c4cccs4)s3)c2)[C@H](O)[C@@H](O)[C@@H]1O` [Example 5, (2S,3R,4R,5S,6R)-2-(4-Chloro-3-((5-(thiophen-2-yl)-1,3,4-thiadiazol-2-yl)methyl)phenyl)-6-(hydroxymethyl)tetrahydro-2H-pyran-3,4,5-triol], the pIC50 was 7.84.
In the case of `OC[C@H]1O[C@@H](c2ccc(Cl)c(Cc3nnc(-c4cc5ccccc5s4)s3)c2)[C@H](O)[C@@H](O)[C@@H]1O` [Example 6, (2S,3R,4R,5S,6R)-2-(3-((5-(Benzo[b]thiophen-2-yl)-1,3,4-thiadiazol-2-yl)methyl)-4-chlorophenyl)-6-(hydroxymethyl)-tetrahydro-2H-pyran-3,4,5-triol], the pIC50 was 7.35.
As for `Cc1ccsc1-c1nnc(Cc2cc([C@@H]3O[C@H](CO)[C@@H](O)[C@H](O)[C@H]3O)ccc2Cl)s1` [Example 7, (2S,3R,4R,5S,6R)-2-(4-chloro-3-((5-(3-methylthiophen-2-yl)-1,3,4-thiadiazol-2-yl)methyl)phenyl)-6-(hydroxymethyl)-tetrahydro-2H-pyran-3,4,5-triol], the figure is 6.12; as for `OC[C@H]1O[C@@H](c2ccc(Cl)c(Cc3nnc(-c4ccc(Cl)s4)s3)c2)[C@H](O)[C@@H](O)[C@@H]1O` [Example 8, (2S,3R,4R,5S,6R)-2-(4-Chloro-3-((5-(5-chlorothiophen-2-yl)-1,3,4-thiadiazol-2-yl)methyl)phenyl)-6-(hydroxymethyl)-tetrahydro-2H-pyran-3,4,5-triol], 7.74; as for `OC[C@H]1O[C@@H](c2ccc(Cl)c(Cc3nnc(-c4sccc4Cl)s3)c2)[C@H](O)[C@@H](O)[C@@H]1O` [Example 9, (2S,3R,4R,5S,6R)-2-(4-Chloro-3-((5-(3-chlorothiophen-2-yl)-1,3,4-thiadiazol-2-yl)methyl)phenyl)-6-(hydroxymethyl)tetrahydro-2H-pyran-3,4,5-triol], 6.15.
With `OC[C@H]1O[C@@H](c2ccc(Cl)c(Cc3nnc(-c4ccsc4)s3)c2)[C@H](O)[C@@H](O)[C@@H]1O` [Example 10, (2S,3R,4R,5S,6R)-2-(4-Chloro-3-((5-(thiophen-3-yl)-1,3,4-thiadiazol-2-yl)methyl)phenyl)-6-(hydroxymethyl)tetrahydro-2H-pyran-3,4,5-triol] the figure was 8.45.
As to `Cn1cccc1-c1nnc(Cc2cc([C@@H]3O[C@H](CO)[C@@H](O)[C@H](O)[C@H]3O)ccc2Cl)s1` [Example 11, (2S,3R,4R,5S,6R)-2-(4-Chloro-3-((5-(1-methyl-1H-pyrrol-2-yl)-1,3,4-thiadiazol-2-yl)methyl)phenyl)-6-(hydroxymethyl)-tetrahydro-2H-pyran-3,4,5-triol], the pIC50 was 6.92.
With `Cc1cc(-c2nnc(Cc3cc([C@@H]4O[C@H](CO)[C@@H](O)[C@H](O)[C@H]4O)ccc3Cl)s2)no1` [Example 12, (2S,3R,4R,5S,6R)-2-(4-Chloro-3-((5-(5-methylisoxazol-3-yl)-1,3,4-thiadiazol-2-yl)methyl)phenyl)-6-(hydroxymethyl)tetrahydro-2H-pyran-3,4,5-triol] the figure was 6.59; with `OC[C@H]1O[C@@H](c2ccc(Cl)c(Cc3nnc(-c4cscn4)s3)c2)[C@H](O)[C@@H](O)[C@@H]1O` [Example 13, (2S,3R,4R,5S,6R)-2-(4-Chloro-3-((5-(thiazol-4-yl)-1,3,4-thiadiazol-2-yl)methyl)phenyl)-6-(hydroxymethyl)tetrahydro-2H-pyran-3,4,5-triol], 7.66; with `OC[C@H]1O[C@@H](c2ccc(Cl)c(Cc3nnc(-c4cnc(-c5ccncc5)s4)s3)c2)[C@H](O)[C@@H](O)[C@@H]1O` [Example 14, (2S,3R,4R,5S,6R)-2-(4-Chloro-3-((5-(2-(pyridin-4-yl)thiazol-5-yl)-1,3,4-thiadiazol-2-yl)methyl)phenyl)-6-(hydroxymethyl)-tetrahydro-2H-pyran-3,4,5-triol], 7.14.
With `OC[C@H]1O[C@@H](c2ccc(Cl)c(Cc3nnc(-c4ccccn4)s3)c2)[C@H](O)[C@@H](O)[C@@H]1O` [Example 15, (2S,3R,4R,5S,6R)-2-(4-Chloro-3-((5-(pyridin-2-yl)-1,3,4-thiadiazol-2-yl)methyl)phenyl)-6-(hydroxymethyl)tetrahydro-2H-pyran-3,4,5-triol] the figure was 7.52; with `Cc1ccc(-c2nnc(Cc3cc([C@@H]4O[C@H](CO)[C@@H](O)[C@H](O)[C@H]4O)ccc3Cl)s2)cn1` [Example 16, (2S,3R,4R,5S,6R)-2-(4-Chloro-3-((5-(6-methylpyridin-3-yl)-1,3,4-thiadiazol-2-yl)methyl)phenyl)-6-(hydroxymethyl)-tetrahydro-2H-pyran-3,4,5-triol], 7.01.
As for `OC[C@H]1O[C@@H](c2ccc(Cl)c(Cc3nnc(-c4ccc5ccccc5n4)s3)c2)[C@H](O)[C@@H](O)[C@@H]1O` [Example 17, (2S,3R,4R,5S,6R)-2-(4-Chloro-3-((5-(quinolin-2-yl)-1,3,4-thiadiazol-2-yl)methyl)phenyl)-6-(hydroxymethyl)-tetrahydro-2H-pyran-3,4,5-triol], the figure is 6.25; as for `OC[C@H]1O[C@@H](c2ccc(Cl)c(Cc3nnc(-c4cc5ccccc5cn4)s3)c2)[C@H](O)[C@@H](O)[C@@H]1O` [Example 18, (2S,3R,4R,5S,6R)-2-(4-Chloro-3-((5-(isoquinolin-3-yl)-1,3,4-thiadiazol-2-yl)methyl)phenyl)-6-(hydroxymethyl)-tetrahydro-2H-pyran-3,4,5-triol], 7.09.
Compound `OC[C@H]1O[C@@H](c2ccc(Cl)c(Cc3nnc(C4CCCC4)s3)c2)[C@H](O)[C@@H](O)[C@@H]1O` [Example 19, (2S,3R,4R,5S,6R)-2-(4-Chloro-3-((5-cyclopentyl-1,3,4-thiadiazol-2-yl)methyl)phenyl)-6-(hydroxymethyl)tetrahydro-2H-pyran-3,4,5-triol] gave a pIC50 of 6.35.

The pIC50 is −log10 of the IC50, conventionally taken in molar units. High values mean a low IC50, low ones a high IC50.

These data come from patent US8541380B2, “C-aryl glucoside SGLT2 inhibitors and pharmaceutical compositions comprising same” (Green Cross Corporation, priority 2009, dated 2013).
